Data from PMC7226045, “Ensartinib (X-396) Effectively Modulates Pharmacokinetic Resistance Mediated by ABCB1 and ABCG2 Drug Efflux Transporters and CYP3A4 Biotransformation Enzyme” (Cancers, 2020).

Key:
ABCC1 = target: T1, ABCC1 (Homo sapiens, UniProt P33527); assay: MDCKII monolayer transport assay, MDCKII-ABCC1; format: in vitro ADME; settings: dog, 1 µM ensartinib, read-out: transport ratio (r), BA/AB
T1 construct: expressed in transfected cells; host or cells: MDCKII-ABCC1 (from Dr. Alfred Schinkel, The Netherlands Cancer Institute)
Description: Transport assays were performed on microporous polycarbonate membrane filters (3 µm pore size, 24 mm diameter, Transwell 3414; Costar, Corning, NY, USA) using MDCKII parental as well as ABCB1-, ABCG2-, and ABCC1-overexpressing MDCKII cells. The cells were seeded at a density of 1.5 × 10^6 cells per insert and cultured to full confluence for 7 days with media exchanges on the second and fourth days. Before the start of the transport experiments, inserts were washed with 1 × PBS on both the apical and basal sides. The cells were then preincubated in Opti-MEM with or without model inhibitors (1 µM LY335979, 1 µM Ko143, or 25 µM MK-571). […] Ensartinib levels in samples were measured by UHPLC-MS/MS (see below). […]
Samples from the monolayer transport assays (10 µL) were mixed with 100 µL of acetonitrile and 100 µL of methanol, vortexed for 15 min, and centrifuged at 14,500 rpm for 3 min. […] The MS source parameters were set to the following: drying gas, 320 °C, flow rate 10 l/min; sheath gas, 400 °C at 12 l/min; nebulizer pressure 25 psi; capillary voltage 4000 V; nozzle voltage 0 V. Transitions of [M+H]^+ ions were detected using a dwell time of 150 ms, a cell acceleration of 4 V, and fragmentor voltages of 137 V for 547→357, 257 and 120 transitions (corresponding to collision energies of 16, 32, and 56 V).

MDCKII-ABCC1 cells = assay: MTT proliferation assay, MDCKII-ABCC1; format: cell-based, canine; settings: Canis lupus familiaris, 48 h, read-out: IC50, sensitivity to ensartinib
Description: (§1) MTT proliferation assay was performed as described previously.

[1] = MTT proliferation assay, A431-ABCB1; format: cell-based; settings: human, A431-ABCB1 cells, read-out: IC50, sensitivity to ensartinib
Description: as §1

HL60-ABCB1 cells = assay: XTT proliferation / drug combination assay, HL60-ABCB1; settings: HL60-ABCB1
Description: (§2) The MTT method is not readily adapted for use with suspension cell cultures, therefore the XTT assay was used to assess the proliferation of HL60 cells. Briefly, HL60-par, HL60-ABCB1, HL60-ABCG2, and HL60-ABCC1 cells were seeded at 2 × 10^4 cells/well in 96-well culture plates. Immediately after seeding, dilutions of the tested drugs or drug combinations were added to the cells. The plates were then incubated under standard conditions (37 °C, 5% CO2) for 48 h, after which XTT solution in PBS (1 mg/mL) and phenazine methosulfate (7.50 µg/mL) were added to the cells and the plates were incubated for another 5 h. Finally, the cells’ absorbance was measured at 450 nm using a microplate reader (Infinite M200, Tecan, Salzburg, Austria). This method was used to assess the effect of ABC transporters on sensitivity to ensartinib and in drug combination assays.
(§3) Experiments focusing on the modulation of ABC transporter-mediated resistance were performed as described previously. The parent MDCKII and HL60 cells and their ABCB1-, ABCG2-, and ABCC1-overexpressing counterparts were seeded at the densities specified above onto 96-well culture plates and cultured for 24 h. The medium was subsequently replaced with serial dilutions of ensartinib alone or with various concentrations of a model MDR-susceptible cytostatic agent (daunorubicin or mitoxantrone) with or without 10 µM ensartinib. After 48 h incubation, the cells’ viability was determined as described above. In addition to performing IC50-shift analyses, the viability measurements were converted to FA (fraction of cells affected) values and the effects of drug combinations were quantified using the Chou-Talalay combination index (CI) method as implemented in CompuSyn 3.0.1 (ComboSyn Inc., Paramus, NJ, USA). The effects of concomitantly administered drugs were classified as synergistic (CI < 0.9), additive (0.9 < CI < 1.1), or antagonistic (CI > 1.1) based on the computed CI values.

[2] = as above; settings: human, HL60-ABCB1 cells
Description: as §2, §3

T1 sequence (P33527 whole entry): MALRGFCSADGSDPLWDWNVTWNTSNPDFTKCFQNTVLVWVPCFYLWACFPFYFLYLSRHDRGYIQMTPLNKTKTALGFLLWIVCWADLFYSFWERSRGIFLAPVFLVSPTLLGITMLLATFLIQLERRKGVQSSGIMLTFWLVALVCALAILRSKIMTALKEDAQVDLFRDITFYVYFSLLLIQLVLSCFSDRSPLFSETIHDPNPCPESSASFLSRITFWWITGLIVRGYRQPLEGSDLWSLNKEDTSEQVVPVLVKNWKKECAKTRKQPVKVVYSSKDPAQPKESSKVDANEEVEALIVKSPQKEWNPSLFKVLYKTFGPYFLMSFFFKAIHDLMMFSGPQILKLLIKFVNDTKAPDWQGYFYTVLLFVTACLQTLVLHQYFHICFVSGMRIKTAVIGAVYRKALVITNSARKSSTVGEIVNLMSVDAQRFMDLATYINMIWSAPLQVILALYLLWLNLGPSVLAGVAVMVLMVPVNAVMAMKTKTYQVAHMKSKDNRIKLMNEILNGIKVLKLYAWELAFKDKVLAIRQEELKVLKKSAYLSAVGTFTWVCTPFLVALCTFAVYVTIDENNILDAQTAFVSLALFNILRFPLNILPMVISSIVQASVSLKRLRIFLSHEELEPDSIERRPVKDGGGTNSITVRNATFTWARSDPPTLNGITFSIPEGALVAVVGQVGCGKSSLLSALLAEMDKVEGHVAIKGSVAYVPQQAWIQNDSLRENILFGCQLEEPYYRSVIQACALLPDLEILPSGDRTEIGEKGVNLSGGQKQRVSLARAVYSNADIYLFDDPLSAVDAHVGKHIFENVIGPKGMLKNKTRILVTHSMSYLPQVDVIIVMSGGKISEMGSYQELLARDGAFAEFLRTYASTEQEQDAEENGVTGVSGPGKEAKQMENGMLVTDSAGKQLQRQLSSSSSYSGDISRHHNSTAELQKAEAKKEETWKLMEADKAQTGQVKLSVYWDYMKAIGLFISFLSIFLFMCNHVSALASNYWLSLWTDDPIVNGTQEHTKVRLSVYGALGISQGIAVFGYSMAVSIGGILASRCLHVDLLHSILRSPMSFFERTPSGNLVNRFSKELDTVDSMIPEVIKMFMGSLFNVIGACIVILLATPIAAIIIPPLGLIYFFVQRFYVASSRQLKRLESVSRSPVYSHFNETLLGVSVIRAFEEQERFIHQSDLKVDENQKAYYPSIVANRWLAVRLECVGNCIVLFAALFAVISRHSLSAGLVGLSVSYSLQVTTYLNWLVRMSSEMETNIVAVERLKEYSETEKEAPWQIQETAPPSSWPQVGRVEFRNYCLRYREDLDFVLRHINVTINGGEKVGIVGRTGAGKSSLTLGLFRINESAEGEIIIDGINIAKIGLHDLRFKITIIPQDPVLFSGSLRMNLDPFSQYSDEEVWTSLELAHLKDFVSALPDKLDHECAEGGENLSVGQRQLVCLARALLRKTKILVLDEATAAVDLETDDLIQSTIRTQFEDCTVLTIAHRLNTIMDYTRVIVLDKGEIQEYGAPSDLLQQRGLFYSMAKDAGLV

What does the source list for `C[C@@H]1CN(C(=O)c2ccc(NC(=O)c3cc(O[C@H](C)c4c(Cl)ccc(F)c4Cl)c(N)nn3)cc2)C[C@H](C)N1` [ensartinib, Ensartinib]?
efflux ratio at 4 h, 1 µM (ABCC1): 1.29; IC50 (MDCKII-ABCC1 cells): 21.9 µM; IC50 at 48 h [1]: 2.79 µM; combination effect (Chou-Talalay combination index) (HL60-ABCB1 cells; 10 µM ensartinib with daunorubicin): synergistic (synergistic (CI < 0.9)); RR (reversal ratio) (HL60-ABCB1 cells; daunorubicin, IC50 single drug / IC50 combined with 10 µM ensartinib): 22.1; IC50 at 48 h [2]: 29.6 µM
